Consider 14 molecules from patent publication US20230129326A1, “METHODS TO PREVENT SARS-COV-2 INFECTION AND TREAT COVID-19” (priority 2020, published 2023).

In series [1] the test system is SARS-CoV-2 Strain WA-1. Details: species or system hACE2-transgenic mice. Conditions: mouse, in vivo.
On the set-up of series [2]: species or system mice. The settings on record: mouse, in vivo.
In series [3] the test system is SARS-CoV-2 virus (isolate USA-WA1/2020). The series can be described thus: microbe, parasite or virus in culture. It is filed as cell-based.
Series [4] addresses ACE2 (Homo sapiens, UniProt Q9BYF1). It is filed as biochemical.
Series [5] deals with SARS-CoV-2 isolate USA-UF-1/2020. Nature of the series: microbe, parasite or virus in culture. The settings on record: for EC50: Severe acute respiratory syndrome coronavirus 2, Vero C1008, read-out: EC50, 50% inhibition of SARS-CoV-2 isolate USA-UF-1/2020 infection of Vero E6 cells. It is filed as cell-based.
Series [6] concerns SARS-CoV-2 infection. Nature of the series: Drug usage versus SARS-CoV-2 infection in UCSF Health population. It is filed as in vivo. Conditions: for Odds ratio: drug usage vs SARS-CoV-2 infection; for correlation of usage with protection from SARS-CoV-2 infection: statistically significant.
Series [7] concerns the target ACE2/SARS spike protein interaction (Homo sapiens, UniProt Q9BYF1). It is filed as cell-based, SARS-CoV.
The subject of series [8] is SARS-CoV-2. The series can be described thus: N protein copies by qPCR in VeroE6 cells infected with SARS-CoV-2. It is filed as cell-based. Conditions: VeroE6, MOI 0.01, 48 h; drug by itself. (In general: Real-time PCR tracks product formation cycle by cycle.)
Series [9] can be described thus: Cytotoxicity (50% cytotoxic concentration). It is filed as cell-based.
In series [10] the test system is SARS-CoV-2 isolate USA-UF-1/2020. It is filed as cell-based.

Converted amounts (≈) assume the structure as drawn. “Also recorded” adds a separate entry of the source. Read-outs that look alike come from different tables or passages of the source.

ACE2/SARS spike protein interaction, sequence (Q9BYF1 18-805 limits assumed): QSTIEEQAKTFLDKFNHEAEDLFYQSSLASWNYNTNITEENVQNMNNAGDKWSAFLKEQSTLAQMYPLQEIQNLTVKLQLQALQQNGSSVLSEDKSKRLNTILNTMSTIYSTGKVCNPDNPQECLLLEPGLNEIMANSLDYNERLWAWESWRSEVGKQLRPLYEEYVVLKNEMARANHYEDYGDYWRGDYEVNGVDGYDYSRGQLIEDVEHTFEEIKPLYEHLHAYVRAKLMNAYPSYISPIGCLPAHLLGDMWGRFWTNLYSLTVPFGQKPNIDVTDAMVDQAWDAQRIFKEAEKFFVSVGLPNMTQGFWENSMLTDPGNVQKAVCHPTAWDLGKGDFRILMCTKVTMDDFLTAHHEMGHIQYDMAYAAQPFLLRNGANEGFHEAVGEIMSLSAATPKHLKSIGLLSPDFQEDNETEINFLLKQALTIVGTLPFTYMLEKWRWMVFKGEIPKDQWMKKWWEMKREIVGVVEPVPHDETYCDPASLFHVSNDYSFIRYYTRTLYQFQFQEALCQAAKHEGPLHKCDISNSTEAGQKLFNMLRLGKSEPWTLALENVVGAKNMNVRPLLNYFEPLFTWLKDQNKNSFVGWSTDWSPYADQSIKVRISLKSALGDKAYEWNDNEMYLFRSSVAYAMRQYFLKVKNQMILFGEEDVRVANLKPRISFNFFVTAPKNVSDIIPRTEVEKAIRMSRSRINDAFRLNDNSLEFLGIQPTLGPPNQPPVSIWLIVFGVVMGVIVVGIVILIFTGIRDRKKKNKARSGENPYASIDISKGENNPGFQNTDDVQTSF
ACE2, sequence (Q9BYF1 18-805): as the sequence (Q9BYF1 18-805 limits assumed) above

For the molecule LQSYGFQPTNGV peptide, in series [1], the “lungs at gross necropsy” value was “some damage/abscesses in the lungs”, the “survival at 5 dpi” value is listed as “survived 5 dpi” and the “viral load in the lungs (plaque forming units)” value is on record as “low plaque forming units per liter in the lungs”. Further, the “immune response in mice” value in series [2] was “induced a strong immune response”.

For the molecule `O=c1c(O)c(-c2cc(O)c(O)c(O)c2)oc2cc(O)cc(O)c12` [Myricetin, myricetin], the “in vitro activity against SARS-CoV-2” value in series [3] is given as “observed to have in vitro activity”.

As for `CC(CCc1ccccc1)NCC(O)c1ccc(O)c(C(N)=O)c1` (centres unmarked) [labetalol], in [4], the “ACE2 binding activity (velocity of ACE2)” value is on record as “Enhanced velocity of ACE2”.

Turning to `CN(C)CCOC(c1ccccc1)c1ccccc1` [diphenhydramine], in [5], the “direct antiviral activity against SARS-CoV-2 isolates in vitro” value (“direct antiviral activity” for short) is reported as “exhibited direct antiviral activity”.

Regarding `CN(C)CCC(c1ccc(Br)cc1)c1ccccn1` (centres unmarked) [Brompheniramine], in [6], the Odds ratio is 0.76.

Consider `N=C(N)c1ccc(/N=N/Nc2ccc(C(=N)N)cc2)cc1` [diminazene], for which, in [4], the “ACE2 binding activity (velocity of ACE2)” value is listed as “Enhanced velocity of ACE2”.

`NCCNCCN1CC1` [N-(2-aminoethyl)-1 aziridine-ethanamine, N-(2-aminoethyl)-1-aziridine-ethanamine]: the “ACE2 binding activity (velocity of ACE2)” value in [4] is “Inhibits velocity of ACE2”. In addition, in [7], the “ACE2/SARS spike protein interaction” value is “inhibited ACE2 interactions with SARS-CoV spike protein; also recorded: Inhibits ACE2/SARS spike protein interaction” and the “SARS S-glycoprotein-mediated cell fusion” value was “effective in blocking the SARS coronavirus spike protein-mediated cell fusion; also recorded: inhibits SARS S-glycoprotein-mediated cell fusion; also recorded: inhibition of SARS S-glycoprotein-mediated cell fusion”.

For `CCN(CC)CCCN(c1ccccc1)C1Cc2ccccc2C1` [Aprindine, aprindine], the “ACE2 binding activity (velocity of ACE2)” value in [4] was “Inhibited velocity of ACE2”.

For `CC(CN1c2ccccc2Sc2ccccc21)N(C)C` (centres unmarked) [Promethazine], the “reduction of viral replication in vitro” value in series [8] is recorded as approximately 100 ×.

`NCCNCCNCCN` [Triethylenetetramine, triethylenetetramine]: the “ACE2 binding activity (velocity of ACE2)” value in series [4] is listed as “Inhibits velocity of ACE2”. Besides, the “ACE2/SARS spike protein interaction” value in series [7] is recorded as “Inhibits ACE2/SARS spike protein interaction”.

For the molecule `CN(C)CC/C=C1/c2ccccc2Sc2ccc(Cl)cc21.Cl` [Minithixen, Chlorprothixene hydrochloride], the “ACE2 binding activity (velocity of ACE2)” value in series [4] (hydrochloride) is given as “Inhibited velocity of ACE2”.

Take `CN1CCCC(n2nc(Cc3ccc(Cl)cc3)c3ccccc3c2=O)CC1` (centres unmarked) [azelastine]: in [6], the Odds ratio is listed as 0.16 and the “correlation of usage with protection from SARS-CoV-2 infection” value was “correlated with protection from SARS-CoV-2 infection”. In series [5], the “direct antiviral activity” value is on record as “exhibited direct antiviral activity” and the EC50 was determined as 2.24 µg/mL (≈ 5.87 µM).

In the case of `CN(C)CCC(c1ccc(Cl)cc1)c1ccccn1` (centres unmarked) [chlorpheniramine], in series [6], the Odds ratio is given as 0.23 and the “correlation of usage with protection from SARS-CoV-2 infection” value is reported as “correlated with protection from SARS-CoV-2 infection”.

For `OCCOCCN1CCN(C(c2ccccc2)c2ccc(Cl)cc2)CC1` (centres unmarked) [hydroxyzine], the viral burden entry in series [3] is reported as “lowered viral burden to below the level of detection”. In addition, the EC50 in series [3] (Severe acute respiratory syndrome coronavirus 2, Vero C1008, 48 h, read-out: EC50, viral burden by plaque assay) is 11.3 µg/mL (≈ 30.1 µM); in [3] (Severe acute respiratory syndrome coronavirus 2, Vero C1008, read-out: anti-SARS-CoV-2 activity EC50), 11.3 µg/mL (≈ 30.1 µM); in [5], 15.3 µg/mL (≈ 40.8 µM). Moreover, the 50% cytotoxic concentration result in series [9] is given as “approximately 50 μg/ml”. Besides, in series [6], the Odds ratio is listed as 0.76. Moreover, the “ACE2 binding activity (velocity of ACE2)” value in [4] is “inhibited ACE2 activity; also recorded: Inhibited velocity of ACE2”. Further, in series [10], the “level of SARS-CoV-2 mRNA expressed in the cells” value is recorded as “significantly lowered”. Further, in series [5], the “direct antiviral activity” value is listed as “exhibited direct antiviral activity”.
